We go through 80 molecules from paper PMC12040169 (PLOS Biology, 2025).

One series is described as follows: in vitro. The settings on record: human, hela cells, % viability.
For the molecule `NS(=O)(=O)c1ccc(CNC(=O)c2ccccc2Nc2cccc(C(F)(F)F)c2)cc1` [CBK149579], the viability (commonly a read-out of living cells in per cent, often relative to untreated cells) at 28.5 h, 10 µM was 94.4%.

As for `CC(C)(C)OC(=O)N1CCC(CNCc2cc(F)cc(F)c2)CC1` [CBK056715], the viability at 28.5 h, 10 µM was determined as 119%.

On to `O=S(=O)(Nc1cccc2nsnc12)c1cccs1` [CBK017018], for which the viability at 28.5 h, 10 µM came out at 75.6%.

Turning to `O=C(NC1CCCc2nc(N3CCC(CO)CC3)ncc21)C1CCCC1` (centres unmarked) [CBK307415], the viability at 28.5 h, 10 µM came out at 87.4%.

`NS(=O)(=O)c1ccc(NC(=O)CCCOc2ccc(Cl)cc2Cl)cc1` [CBK261536]: the viability at 28.5 h, 10 µM was found to be 104%.

For the molecule `COc1ccc(F)c(CNCCNC(=O)OC(C)(C)C)c1` [CBK056699], the viability at 28.5 h, 10 µM stood at 93.9%.

For `CN1CCCN(c2cnn(Cc3ccc(Cl)s3)c(=O)c2)CC1` [CBK307123], the viability at 28.5 h, 10 µM came out at 90.8%.

As to `c1coc(CNc2cncc(-c3cccc4ccccc34)n2)c1` [CBK065573], the viability at 28.5 h, 10 µM is 115%.

As for `CC(=O)N1CC[C@H]2NC(=O)CNC(=O)C3(CCCC[C@H]2C1)CCN(C(=O)CCn1ccnc1)CC3` [CBK292138], the viability at 28.5 h, 10 µM was found to be 111%.

For the molecule `CC(=O)Nc1ccc(OC(=O)c2ccc(Br)o2)cc1` [CBK293917], the viability at 28.5 h, 10 µM was determined as 112%.

Regarding `Cc1cc(O)nc2sc(C(=O)c3ccccc3)c(N)c12` [CBK115334], the viability at 28.5 h, 10 µM is 87.9%.

`COc1nc2ccn(CC(O)CO)c(=O)c2cc1C#N` (centres unmarked) [CBK307251]: the viability at 28.5 h, 10 µM is 97.1%.

Turning to `O=C(CN1C2CCC1CC(O)(c1ccco1)C2)N1c2ccccc2CCc2ccccc21` (centres unmarked) [CBK286168], the viability at 28.5 h, 10 µM is 94%.

Take `CC(C)(C)NC(=O)NC1CCC2(CC1)CC(=O)c1ccccc1O2` (centres unmarked) [CBK283390]: the viability at 28.5 h, 10 µM is 109%.

Regarding `O=C1CNC(=O)C2(C/C=C/C[C@H]3COCC[C@H]3N1)CCN(C(=O)C1CCOCC1)CC2` [CBK292143], the viability at 28.5 h, 10 µM is 84.9%.

On to `CC1(C)OC2C(C(=O)O)OC(n3cnc4c(N)ncnc43)C2O1` (centres unmarked) [CBK262912], for which the viability at 28.5 h, 10 µM amounted to 96.2%.

As for `CCNc1cc(-c2ccc(N3CCOCC3)cc2)ncn1` [CBK090876], the viability at 28.5 h, 10 µM was 115%.

Consider `O=C(NCC(c1ccccc1)c1ccccc1)N1CCN(c2ccccc2)CC1` [CBK155197], for which the viability at 28.5 h, 10 µM came out at 89.8%.

As to `CCCn1cc(NC(=O)NC(C)(CC)CO)ccc1=O` (centres unmarked) [CBK304864], the viability at 28.5 h, 10 µM is 88.7%.

For `CC(Oc1ccc(Br)cc1)C(=O)O/N=C(\N)c1ccncc1` (centres unmarked) [CBK266797], the viability at 28.5 h, 10 µM was 93%.

On to `NC(=O)C1(N2CCCCC2)CCN(C(=S)Nc2ccc(S(N)(=O)=O)cc2)CC1` [CBK265900], for which the viability at 28.5 h, 10 µM worked out at 90.5%.

Regarding `O=C1CCC(=O)N1CCOc1nccnc1OC1CCN(CCc2ccccn2)CC1` [CBK084360], the viability at 28.5 h, 10 µM turned out to be 99.5%.

Turning to `Cc1nc(C)c(C(=O)N2CCCC(C(=O)c3ccc(F)cc3)C2)s1` (centres unmarked) [CBK305296], the viability at 28.5 h, 10 µM was 104%.

In the case of `Fc1cccc(-c2nccnc2NCc2cccnc2)c1` [CBK037633], the viability at 28.5 h, 10 µM was 88.3%.

Turning to `O=C(C1=C(O)C(=O)N(CCN2CCOCC2)C1c1cccc(Br)c1)c1ccco1` (centres unmarked) [CBK264490], the viability at 28.5 h, 10 µM is 94.4%.

In the case of `CC(C)Nc1cc(Sc2ccc(Br)cc2)ncn1` [CBK089502], the viability at 28.5 h, 10 µM was 103%.

Take `CC(Cc1ccc(N(C)C)cc1)NC(=O)C1CN(S(=O)(=O)c2ccc(F)cc2)C1` (centres unmarked) [CBK285942]: the viability at 28.5 h, 10 µM amounted to 114%.

On to `O=c1c2sc(-c3ccc(F)cc3)cc2ncn1CC1(O)CCCNC1` (centres unmarked) [CBK306525], for which the viability at 28.5 h, 10 µM stood at 88.4%.

As to `O=C(c1ccccc1)N1CCCC(c2nnc(-c3cccs3)o2)C1` (centres unmarked) [CBK283059], the viability at 28.5 h, 10 µM was found to be 103%.

For the molecule `O=[N+]([O-])c1ccc(/C=N/c2cccc(-c3nc4ccccc4s3)c2)cc1` [CBK293918], the viability at 28.5 h, 10 µM was determined as 91.4%.

Regarding `Cn1nc(-c2ccc(S(=O)(=O)Nc3cccc(C(=O)O)c3)s2)cc1C(F)(F)F` [CBK155080], the viability at 28.5 h, 10 µM is 86.9%.

`CCCN1CCC2CN(CCCC(=O)c3ccc(F)cc3)CCN2C1=O` (centres unmarked) [CBK024882C]: the viability at 28.5 h, 10 µM came to 101%.

Consider `Cc1cc(SCC(=O)Nc2cccc3ccccc23)nc2c(C)cccc12` [CBK268005], for which the viability at 28.5 h, 10 µM worked out at 92.2%.

On to `Cc1noc(C)c1NC(=O)c1cscn1` [CBK200397], for which the viability at 28.5 h, 10 µM was 95.2%.

Consider `O=C(O)C1CCCN(C(=O)NCCOc2ccccc2)C1` (centres unmarked) [CBK161366], for which the viability at 28.5 h, 10 µM was found to be 115%.

In the case of `COc1cccc(C(=O)N2CCN(C(=O)c3cccc(F)c3)CC2)c1OC` [CBK263316], the viability at 28.5 h, 10 µM came to 105%.

On to `COc1ccc(N2CCN(c3cncc(-c4cc(OC)c(OC)c(OC)c4)n3)CC2)cc1OC` [CBK037988], for which the viability at 28.5 h, 10 µM was found to be 99.9%.

With `Clc1ccccc1-c1cn2ccnc2c(NCc2cccnc2)n1` [CBK038039], the viability at 28.5 h, 10 µM stood at 94.5%.

Regarding `Cc1cc(NC(=O)C(=O)NCCCN2CCOCC2)ccc1Br` [CBK268046], the viability at 28.5 h, 10 µM is 94.7%.

For the molecule `O=C(O)COc1ccc(N2C(=O)c3ccc(-c4nc5ccccc5c(=O)o4)cc3C2=O)cc1` [CBK265659], the viability at 28.5 h, 10 µM stood at 106%.

In the case of `Cc1cc(CNC(=O)Cn2nc(C)c(C)c2C)on1` [CBK281487], the viability at 28.5 h, 10 µM is 95.1%.

Turning to `Cc1nc2ccc(NC(=O)c3cccc(C(F)(F)F)c3)cc2nc1C` [CBK270221], the viability at 28.5 h, 10 µM is 88.2%.

`COc1cc(NC(=O)Cc2cccc3ccccc23)c(C(=O)O)cc1OC` [CBK268206]: the viability at 28.5 h, 10 µM was 99.9%.

For the molecule `O=c1[nH]c2ncc(-c3ccco3)nc2n1CCc1cccnc1` [CBK064494], the viability at 28.5 h, 10 µM came out at 94.7%.

Regarding `Cc1cc(NC(=O)C(C)OC(=O)C(NC(=O)OC(C)(C)C)c2ccccc2)no1` (centres unmarked) [CBK170398], the viability at 28.5 h, 10 µM worked out at 100%.

For `O=C1CCc2cc(S(=O)(=O)NC(c3ccccc3)c3ccccc3)cc3c2N1CCC3` [CBK294418], the viability at 28.5 h, 10 µM was determined as 95.6%.

`CCOC(=O)C1(Cc2cc(-c3cccc(F)c3)no2)CCNCC1` [CBK284881]: the viability at 28.5 h, 10 µM came to 89.4%.

With `CCn1c(C2CCN(C(=O)c3ccc(C)c(Cl)c3)CC2)nn(C)c1=O` [CBK307280], the viability at 28.5 h, 10 µM turned out to be 95.9%.

As to `CCn1c(C)nc2cc(C(=O)NC3CCCOC3)ccc21` (centres unmarked) [CBK282066], the viability at 28.5 h, 10 µM worked out at 92.5%.

`CCOC(=O)c1ccccc1NS(=O)(=O)Cc1ccccc1[N+](=O)[O-]` [CBK050594]: the viability at 28.5 h, 10 µM came to 92.3%.

With `CC1(C)CC(=O)C(=CNCC(N)=O)C(=O)C1` [CBK262520], the viability at 28.5 h, 10 µM turned out to be 87.2%.

On to `COCc1[nH]nc(O)c1Cc1c(Cl)cccc1Cl` [CBK105305], for which the viability at 28.5 h, 10 µM turned out to be 91%.

Turning to `FC(F)(F)c1ccccc1/C=N/n1c(S)nnc1COc1ccccc1` [CBK265260], the viability at 28.5 h, 10 µM was found to be 99.7%.

On to `O=C(c1ccco1)N1CCC(Cn2cncn2)(C2CCCCC2)CC1` [CBK136811], for which the viability at 28.5 h, 10 µM was 87.2%.

Take `Cc1c(C)n(O)[n+]([O-])c1-c1ccccc1` [CBK264510N]: the viability at 28.5 h, 10 µM was determined as 103%.

For `Cc1ncccc1-c1cc2cccnc2n1CCCNC(=O)C1CC1` [CBK282687], the viability at 28.5 h, 10 µM was 81.5%.

As to `Cc1ccc(Cn2ccsc2=NC(=O)c2cc(S(=O)(=O)N3CCOCC3)ccc2C)cc1` [CBK296935], the viability at 28.5 h, 10 µM worked out at 101%.

In the case of `Nc1ccn([C@H]2C[C@@H](O)[C@@H](CO)O2)c(=O)n1` [CBK201274], the viability at 28.5 h, 10 µM is 96.2%.

Take `C[C@H](c1ccccc1)n1c(=O)[nH]c2ncc(-c3cccc4ccccc34)nc21` [CBK064241]: the viability at 28.5 h, 10 µM stood at 101%.

In the case of `Cc1nc(C(C)NC(=O)CCc2cnn(C)c2)c(C)s1` (centres unmarked) [CBK307064], the viability at 28.5 h, 10 µM turned out to be 92.6%.

Take `Nc1nc2n(n1)C1(CCCCC1)C1=C(CCCC1)N2` [CBK288219]: the viability at 28.5 h, 10 µM was 86.7%.

`O=C(CN1CCC2(CC1)CN(C(=O)CO)c1ccccc12)Nc1ccc(F)c(Cl)c1` [CBK131509]: the viability at 28.5 h, 10 µM turned out to be 92.3%.

As to `O=C(c1ccncc1)c1ccc(N2CCN(C3CC(=O)N(Cc4cccs4)C3=O)CC2)cc1` (centres unmarked) [CBK269074], the viability at 28.5 h, 10 µM is 94.6%.

As for `Cn1ncc2c1CCCN(C(=O)CCCOc1ccccc1F)C2` [CBK285278], the viability at 28.5 h, 10 µM is 85%.

Turning to `O=C(O)CCC(=O)Nc1ccc(NC(=O)c2ccccc2)c(Cl)c1` [CBK263478], the viability at 28.5 h, 10 µM amounted to 86.8%.

Take `CC(C)(CNC(=O)c1ccc(=O)n(CC(=O)Nc2ccc(F)cc2)c1)c1cccc(F)c1` [CBK285955]: the viability at 28.5 h, 10 µM was 86.7%.

As to `COc1ccc(C(CC(=O)O)C(=O)O)cc1OC` (centres unmarked) [CBK261943], the viability at 28.5 h, 10 µM came to 90.4%.

With `CC(C)C(=O)NC(=S)Nc1ccc2oc(-c3ccncc3)nc2c1` [CBK269702], the viability at 28.5 h, 10 µM stood at 96.4%.

Turning to `N#Cc1c(NC(=O)C(=O)NCc2cccnc2)sc2c1CCCC2` [CBK269485], the viability at 28.5 h, 10 µM came to 91%.

With `CCOC(=O)c1cccc(NS(=O)(=O)c2c(C)noc2C)c1` [CBK034339], the viability at 28.5 h, 10 µM was found to be 110%.

Turning to `Cc1c(F)cccc1CN(CC(C)(C)CN)C(=O)Nc1ccc2c(c1)OCO2` [CBK002486C], the viability at 28.5 h, 10 µM was found to be 87.9%.

Take `COc1cc(NC(=O)Nc2ccc3ccc(Cl)nc3n2)cc(OC)c1OC` [CBK115933]: the viability at 28.5 h, 10 µM came out at 82.9%.

As for `N#CCCN(C(=O)Nc1ccccc1Cl)C1CCCCC1` [CBK156366], the viability at 28.5 h, 10 µM worked out at 86.8%.

Take `c1ccc(Cn2cc(-c3nccnc3OC3CCCCC3)cn2)cc1` [CBK107092]: the viability at 28.5 h, 10 µM was determined as 93%.

Consider `FC(F)(F)c1ccccc1NC(=S)Nc1ncn(Cc2ccc(Cl)c(Cl)c2)n1` [CBK267130], for which the viability at 28.5 h, 10 µM came to 87.1%.

In the case of `CCCN(CCC)C(=O)c1ccc(-n2nc(C(=O)OCC)c(Br)c2C)cc1` [CBK114363], the viability at 28.5 h, 10 µM is 109%.

`Nc1nccc2c1ncn2[C@H]1C[C@@H](O)[C@@H](CO)O1` [CBK201157]: the viability at 28.5 h, 10 µM amounted to 97.1%.

`CC(=O)Nc1cccc(NC(=O)N2CCCCC2CO)c1` (centres unmarked) [CBK156181]: the viability at 28.5 h, 10 µM was found to be 101%.

In the case of `Cc1c(C(=O)Nc2cccc(S(=O)(=O)NCc3ccco3)c2)cnn1-c1ccccc1` [CBK297762], the viability at 28.5 h, 10 µM was determined as 89.7%.

Still in this series, the particulars now being: human, hela cells, % viability, bulk resorufin, single well.
Take `CCOc1ccc(N2C(=O)/C(=C/c3ccc(Br)cc3)C(=O)NC2=S)cc1` [CBK263305]: the viability at 28.5 h, 10 µM came to 92.7%.
